Test results as given in ChEMBL document CHEMBL4334477, “Bioactive Sesquiterpene Lactones Isolated from the Whole Plants of Vernonia cinerea” (J Nat Prod, 2019).

What was measured:
[1] = tested on: HeLa; experiment: Cytotoxicity against human HeLa cells assessed as inhibition of cell proliferation measured after 48 hrs by MTS assay; format: functional, cell-based
[2] = tested on: RAW264.7; experiment: Cytotoxicity against mouse RAW264.7 cells assessed as cell proliferation at 10 ug/ml pretreated with LPS for 24 hrs followed by overnight incubation with compound by MTS assay; format: cell-based
[3] = tested on: RAW264.7; experiment: Antiinflammatory activity against mouse RAW264.7 cells assessed as inhibition of LPS-induced nitric oxide overproduction pretreated with LPS for 24 hrs followed by overnight incubation with compound by Griess assay; format: functional, cell-based

| IC50 [3] | Compound | IC50 [1] | Activity [2] |
| --- | --- | --- | --- |
| 23 µM | C=C(C)C(=O)O[C@H]1C[C@@H](C)[C@@]2(O)CC[C@@](C)(/C=C3/OC(=O)C(COC(C)=O)=C31)O2 | 35 µM | Non-Toxic |
| – | C=C(C)C(=O)O[C@H]1C[C@@]23CO[C@@H](C[C@](C)(C[C@@]4(OC)OC(=O)C(COC(C)=O)=C14)O2)[C@@H]3O | > 10 µM | – |
| – | C/C=C(\C)C(=O)O[C@H]1C[C@@]23CO[C@@H](C[C@](C)(/C=C4/OC(=O)C(COC(C)=O)=C41)O2)[C@@H]3O | > 10 µM | – |
| – | C=C(C)C(=O)O[C@H]1C[C@@]23CO[C@@H](C[C@](C)(/C=C4/OC(=O)C(COC)=C41)O2)[C@@H]3O | > 10 µM | – |
| – | C/C=C(\C)C(=O)O[C@H]1C[C@@]23CO[C@@H](C[C@](C)(C[C@@]4(OC)OC(=O)C(COC(C)=O)=C14)O2)[C@@H]3O | > 10 µM | – |
| – | Cc1c2ccncc2c(C)c2c1[nH]c1ccccc12 [ELLIPTECINE] | 2 µM | – |
| – | C=C(C)C(=O)O[C@H]1C[C@@]23CO[C@@H](C[C@](C)(/C=C4/OC(=O)C(COC(C)=O)=C41)O2)[C@@H]3O | > 10 µM | – |
| 21 µM | C/C=C(\C)C(=O)O[C@H]1C[C@@H](C)[C@@]2(O)CC[C@@](C)(/C=C3/OC(=O)C(COC(C)=O)=C31)O2 | 32 µM | Non-Toxic |
| – | C/C=C(\C)C(=O)O[C@H]1C[C@@]23CO[C@@H](C[C@](C)(/C=C4/OC(=O)C(COC)=C41)O2)[C@@H]3O | > 10 µM | – |
